Laboratory results as given in paper PMC4050370 (Nature structural & molecular biology, 2014).

Biological target: LeuT (leucine transporter) (Aquifex aeolicus, UniProt O67854)
Test: [3H]-Ala uptake in proteoliposomes
Format: biochemical
Settings: Na+-dependent; 50 mM NaCl, 50 mM Tris-Mes pH 8.5, 22 °C; labelled compound

C[C@H](N)C(=O)O [alanine]
[3H]-Ala uptake in proteoliposomes: we measured Na^+-dependent alanine uptake in proteoliposomes for a large subset of mutants
